Series [1] has as its system Staphylococcus aureus. In words: Antibacterial activity against methicillin-sensitive Staphylococcus aureus ATCC 49775 incubated for 16 to 20 hrs by CLSI based broth microdilution method. Format: functional. Conditions: time 16-20 hrs.
The subject of series [2] is Staphylococcus aureus. Kind of series: Antibacterial activity against methicillin-sensitive Staphylococcus aureus ATCC 29213 incubated for 16 to 20 hrs by CLSI based broth microdilution method. Format: functional. Conditions: time 16-20 hrs.
For series [3], the system named is Staphylococcus aureus. In words: Antibacterial activity against methicillin-resistant Staphylococcus aureus ATCC USA300 incubated for 16 to 20 hrs by CLSI based broth microdilution method. Type of series: functional. The conditions noted are these: time 16-20 hrs.
Series [4] deals with Staphylococcus aureus. Kind of series: Antibacterial activity against methicillin-resistant Staphylococcus aureus […] incubated for 16 to 20 hrs by CLSI based broth microdilution method. Format: functional. Conditions: time 16-20 hrs.
The nature of series [5]: Hemolytic activity in sheep erythrocytes incubated for 30 mins by absorbance based assay. Type of series: toxicity, cell-based, Ovis aries, Erythrocyte.
A short description of series [6]: Retention time of the compound by RP-HPLC analysis. Format: physicochemical.
Series [7] is described as follows: Nephrotoxicity against HEK293 cells assessed as cell viability at 12.5 uM incubated for 24 hrs by MTT assay relative to control. Type of series: toxicity, cell-based. The conditions noted are these: human, read-out: Activity.
The test system of a further series is HEK293. Kind of series: Nephrotoxicity against HEK293 cells at MIC incubated for 24 hrs by MTT assay. Type of series: toxicity, cell-based. The conditions noted are these: human, hek293, 24 h.

In brackets after ≈: the same amount, converted by molar mass. Residues, ends and D or L forms follow the SMILES beside them.

These results are taken from ChEMBL document CHEMBL5500408, “A New Gramicidin S Analogue with Potent Antibacterial Activity and Negligible Hemolytic Toxicity” (J Med Chem, 2024).

Regarding `CC(C)C[C@@H]1NC(=O)[C@H](CCCN)NC(=O)[C@H](C(C)C)NC(=O)[C@@H]2CCCN2C(=O)[C@@H](Cc2ccccc2)NC(=O)[C@H](CC(C)C)NC(=O)[C@H](CCCNC(=N)N)NC(=O)[C@H](C(C)C)NC(=O)[C@@H]2CCCN2C(=O)[C@@H](Cc2ccccc2)NC1=O`, the MIC worked out at 4 mg/L (≈ 3.38 µM) in the series on Staphylococcus aureus [1], 8 mg/L (≈ 6.76 µM) in the series with Staphylococcus aureus [2], 8 mg/L (≈ 6.76 µM) with Staphylococcus aureus [3] and 16 mg/L (≈ 13.5 µM) against Staphylococcus aureus [4]. Also, the HC50 at 0.5 h in series [5] was 46.2 µM. The compound further returned a Retention_time in series [6] of 18.74 min.
In the case of `CC(C)C[C@@H]1NC(=O)[C@H](CCCN)NC(=O)[C@H](C(C)C)NC(=O)[C@@H]2CCCN2C(=O)[C@@H](Cc2ccccc2)NC(=O)[C@H](CC(C)C)NC(=O)[C@H](CCCNC(=N)N)NC(=O)[C@H](C(C)C)NC(=O)[C@@H]2CCCN2C(=O)[C@@H](CCCNC(=N)N)NC1=O` (HELM PEPTIDE1{L.[dF].P.V.[Orn].L.[dR].P.V.R}$PEPTIDE1,PEPTIDE1,1:R1-10:R2$$$V2.0), the MIC in the series on Staphylococcus aureus [1], in the series with Staphylococcus aureus [2], with Staphylococcus aureus [3] and in the series with Staphylococcus aureus [4] was 8 mg/L (≈ 6.71 µM) in each case. For the same compound, the HC50 at 0.5 h in series [5] turned out to be 87.2 µM. Also, the Retention_time in series [6] is recorded as 16.47 min.
Regarding `CC(C)C[C@@H]1NC(=O)[C@H](CCCN)NC(=O)[C@H](C(C)C)NC(=O)[C@@H]2CCCN2C(=O)[C@@H](Cc2ccccc2)NC(=O)[C@H](CC(C)C)NC(=O)[C@H](CCCN)NC(=O)[C@H](C(C)C)NC(=O)[C@@H]2CCCN2C(=O)[C@@H](Cc2ccccc2)NC1=O` [GRAMICIDIN S] (HELM PEPTIDE1{L.[dF].P.V.[Orn].L.[dF].P.V.[Orn]}$PEPTIDE1,PEPTIDE1,1:R1-10:R2$$$V2.0), the MIC with Staphylococcus aureus [1], with Staphylococcus aureus [2], in the series with Staphylococcus aureus [3] and with Staphylococcus aureus [4] was 4 mg/L (≈ 3.5 µM) each time. The viability at 24 h, 12.5 µM in series [7] was 25%. In series [5], this compound returned an HC50 at 0.5 h of 60.1 µM. Besides, in series [6], the Retention_time is reported as 18.57 min.
Regarding `CC(C)C[C@@H]1NC(=O)[C@H](CCCNC(=N)N)NC(=O)[C@H](C(C)C)NC(=O)[C@@H]2CCCN2C(=O)[C@@H](Cc2ccccc2)NC(=O)[C@H](CC(C)C)NC(=O)[C@H](CCCN)NC(=O)[C@H](C(C)C)NC(=O)[C@@H]2CCCN2C(=O)[C@@H](CCCNC(=N)N)NC1=O`, the MIC with Staphylococcus aureus [1], with Staphylococcus aureus [2], with Staphylococcus aureus [3] and against Staphylococcus aureus [4] was 8 mg/L (≈ 6.71 µM) each time. Further, in series [5], the HC50 at 0.5 h is more than 100 µM. The compound also came in with a Retention_time in series [6] of 16.47 min.
Regarding `CC(C)C[C@@H]1NC(=O)[C@H](CCCN)NC(=O)[C@H](C(C)C)NC(=O)[C@H](Cc2c[nH]cn2)NC(=O)[C@@H](Cc2ccccc2)NC(=O)[C@H](CC(C)C)NC(=O)[C@H](CCCN)NC(=O)[C@H](C(C)C)NC(=O)[C@H](Cc2c[nH]cn2)NC(=O)[C@@H](Cc2ccccc2)NC1=O`, the MIC in the series on Staphylococcus aureus [1] worked out at 64 mg/L (≈ 52.4 µM); in the series with Staphylococcus aureus [2], 64 mg/L (≈ 52.4 µM); against Staphylococcus aureus [3], 128 mg/L (≈ 105 µM); against Staphylococcus aureus [4], 64 mg/L (≈ 52.4 µM). The 50% haemolytic concentration (HC50) at 0.5 h in series [5] was more than 100 µM. Further, the Retention_time in series [6] was 14.74 min.
With `CC(C)C[C@@H]1NC(=O)[C@H](CCCN)NC(=O)[C@H](C(C)C)NC(=O)[C@@H]2CCCN2C(=O)[C@@H](Cc2c[nH]cn2)NC(=O)[C@H](CC(C)C)NC(=O)[C@H](CCCN)NC(=O)[C@H](C(C)C)NC(=O)[C@@H]2CCCN2C(=O)[C@@H](Cc2c[nH]cn2)NC1=O`, the MIC in the series on Staphylococcus aureus [1] is 256 mg/L (≈ 228 µM); against Staphylococcus aureus [2], 256 mg/L (≈ 228 µM); with Staphylococcus aureus [3], more than 256 mg/L; in the series with Staphylococcus aureus [4] it was 256 mg/L (≈ 228 µM). The same compound registered an HC50 at 0.5 h in series [5] of more than 100 µM. This compound returned a Retention_time in series [6] of 14.01 min.
Take `CC(C)C[C@@H]1NC(=O)[C@H](CCCNC(=N)N)NC(=O)[C@H](C(C)C)NC(=O)[C@@H]2CCCN2C(=O)[C@@H](Cc2ccccc2)NC(=O)[C@H](CC(C)C)NC(=O)[C@H](CCCNC(=N)N)NC(=O)[C@H](C(C)C)NC(=O)[C@@H]2CCCN2C(=O)[C@@H](Cc2ccccc2)NC1=O`: the MIC in the series with Staphylococcus aureus [1], in the series on Staphylococcus aureus [2], with Staphylococcus aureus [3] and against Staphylococcus aureus [4] was 8 mg/L (≈ 6.53 µM) throughout. The HC50 at 0.5 h in series [5] was 25.4 µM. The same compound gave a Retention_time in series [6] of 18.62 min.
On to `CC(C)C[C@@H]1NC(=O)[C@H](CCCN)NC(=O)[C@H](C(C)C)NC(=O)[C@@H]2CCCN2C(=O)[C@@H](CCCNC(=N)N)NC(=O)[C@H](CC(C)C)NC(=O)[C@H](CCCN)NC(=O)[C@H](C(C)C)NC(=O)[C@@H]2CCCN2C(=O)[C@@H](CCCNC(=N)N)NC1=O`, for which the MIC in the series with Staphylococcus aureus [1] is 32 mg/L (≈ 27.6 µM); in the series with Staphylococcus aureus [2], 16 mg/L (≈ 13.8 µM); with Staphylococcus aureus [3], 32 mg/L (≈ 27.6 µM); in the series with Staphylococcus aureus [4], 16 mg/L (≈ 13.8 µM). Besides, in series [5], the HC50 at 0.5 h was more than 100 µM. This compound also displayed a Retention_time in series [6] of 14.56 min.
On to `CC(C)C[C@@H]1NC(=O)[C@H](CCCNC(=N)N)NC(=O)[C@H](C(C)C)NC(=O)[C@@H]2CCCN2C(=O)[C@@H](Cc2c[nH]cn2)NC(=O)[C@H](CC(C)C)NC(=O)[C@H](CCCN)NC(=O)[C@H](C(C)C)NC(=O)[C@@H]2CCCN2C(=O)[C@@H](Cc2ccccc2)NC1=O`, for which the MIC against Staphylococcus aureus [1], in the series on Staphylococcus aureus [2], in the series with Staphylococcus aureus [3] and against Staphylococcus aureus [4] was 16 mg/L (≈ 13.6 µM) throughout. In addition, the HC50 at 0.5 h in series [5] was more than 100 µM. Besides, in series [6], the Retention_time is recorded as 16.09 min.
On to `CC(C)C[C@@H]1NC(=O)[C@H](CCCN)NC(=O)[C@H](C(C)C)NC(=O)[C@@H]2CCCN2C(=O)[C@@H](Cc2ccccc2)NC(=O)[C@H](CC(C)C)NC(=O)[C@H](CCCN)NC(=O)[C@H](C(C)C)NC(=O)[C@@H]2CCCN2C(=O)[C@@H](CCCNC(=N)N)NC1=O` (HELM PEPTIDE1{L.[dF].P.V.[Orn].L.[dR].P.V.[Orn]}$PEPTIDE1,PEPTIDE1,1:R1-10:R2$$$V2.0), for which the MIC with Staphylococcus aureus [1], against Staphylococcus aureus [2], in the series with Staphylococcus aureus [3] and in the series on Staphylococcus aureus [4] was 8 mg/L (≈ 6.95 µM) each time. Further, the Activity result in the series with HEK293 is “Non-Toxic”. In series [7], the viability at 24 h, 12.5 µM is approximately 90%. Further, the HC50 at 0.5 h in series [5] is more than 100 µM. Moreover, the Retention_time in series [6] is 16.22 min.
